From PubChem BioAssay AID248 (DTP/NCI, 2004)
Toxic doses and inconclusive results are not listed. Cut-off read from the data, not from the text of the source: active = T/C of 150% or more; inactive = T/C below 125%.

System: L1210 leukemia ip in BDF1 mice, survival T/C
Assay: NCI In Vivo Anticancer Drug Screen. Data for tumor model L1210 Leukemia (intraperitoneal) in B6D2F1 (BDF1) mice
Details: endpoint: mean survival time, higher = longer survival
Summary of the method: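 Read-out is survival time, reported as the treated-group measurement over the vehicle-control measurement.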

[1] = dose: 50.0 mg/kg/injection, schedule: Q01DX001 (ip), vehicle: saline
[2] = dose: 100.0 mg/kg/injection, schedule: Q01DX001 (ip), vehicle: saline
[3] = dose: 200.0 mg/kg/injection, schedule: Q01DX001 (ip), vehicle: saline
[4] = dose: 400.0 mg/kg/injection, schedule: Q01DX001 (ip), vehicle: saline
[5] = dose: 100.0 mg/kg/injection, schedule: Q04DX003 (ip), vehicle: saline with Tween-80
[6] = dose: 200.0 mg/kg/injection, schedule: Q04DX003 (ip), vehicle: saline with Tween-80
[7] = dose: 25.0 mg/kg/injection, schedule: Q01DX009 (ip), vehicle: saline
[8] = dose: 50.0 mg/kg/injection, schedule: Q01DX009 (ip), vehicle: saline
[9] = dose: 100.0 mg/kg/injection, schedule: Q04DX002 (ip), vehicle: Klucel (hydroxypropylcellulose) (HPC)
[10] = dose: 200.0 mg/kg/injection, schedule: Q04DX002 (ip), vehicle: Klucel (hydroxypropylcellulose) (HPC)
[11] = dose: 400.0 mg/kg/injection, schedule: Q04DX002 (ip), vehicle: Klucel (hydroxypropylcellulose) (HPC)
[12] = dose: 100.0 mg/kg/injection, schedule: Q04DX003 (ip), vehicle: Klucel (hydroxypropylcellulose) (HPC)
[13] = dose: 200.0 mg/kg/injection, schedule: Q04DX003 (ip), vehicle: Klucel (hydroxypropylcellulose) (HPC)
[14] = dose: 400.0 mg/kg/injection, schedule: Q04DX003 (ip), vehicle: Klucel (hydroxypropylcellulose) (HPC)
[15] = dose: 12.5 mg/kg/injection, schedule: Q01DX009 (ip), vehicle: Klucel (hydroxypropylcellulose) (HPC)
[16] = dose: 25.0 mg/kg/injection, schedule: Q01DX009 (ip), vehicle: Klucel (hydroxypropylcellulose) (HPC)
[17] = dose: 25.0 mg/kg/injection, schedule: Q01DX001 (ip), vehicle: saline
[18] = dose: 75.0 mg/kg/injection, schedule: Q01DX001 (ip), vehicle: carboxymethylcellulose (CMC)
[19] = dose: 150.0 mg/kg/injection, schedule: Q01DX001 (ip), vehicle: carboxymethylcellulose (CMC)
[20] = dose: 400.0 mg/kg/injection, schedule: Q01DX009 (ip), vehicle: Klucel (hydroxypropylcellulose) (HPC)

Measured: T/C

Cc1cc(C)c([I+]c2ccccc2C(=O)[O-])c(C)c1
inactive: [1] 97 % of control | [2] 105 % of control | [3] 100 % of control | [4] 103 % of control

O=[N+]([O-])c1ccc(Cl)c2c([N+](=O)[O-])cccc12
inactive: [5] 94 % of control | [6] 102 % of control

O/N=C1\CCCc2sccc21
inactive: dose: 100.0 mg/kg/injection, schedule: Q01DX001 (ip), vehicle: steriod suspending solution 114 % of control | dose: 200.0 mg/kg/injection, schedule: Q01DX001 (ip), vehicle: steriod suspending solution 98 % of control | dose: 400.0 mg/kg/injection, schedule: Q01DX001 (ip), vehicle: steriod suspending solution 98 % of control

CNC(C)CC1CCCCC1 (centres undefined)
inactive: dose: 0.78 mg/kg/injection, schedule: Q04DX003 (ip), vehicle: saline 94 % of control | dose: 1.56 mg/kg/injection, schedule: Q01DX009 (ip), vehicle: saline 100 % of control | dose: 1.56 mg/kg/injection, schedule: Q04DX003 (ip), vehicle: saline 98 % of control | dose: 3.12 mg/kg/injection, schedule: Q01DX009 (ip), vehicle: saline 102 % of control | dose: 3.12 mg/kg/injection, schedule: Q04DX003 (ip), vehicle: saline 98 % of control | dose: 6.25 mg/kg/injection, schedule: Q01DX009 (ip), vehicle: saline 97 % of control | dose: 6.25 mg/kg/injection, schedule: Q04DX003 (ip), vehicle: saline 98 % of control | dose: 12.5 mg/kg/injection, schedule: Q01DX009 (ip), vehicle: saline 96 % of control | dose: 12.5 mg/kg/injection, schedule: Q04DX003 (ip), vehicle: saline 100 % of control | [7] 97 % of control | dose: 25.0 mg/kg/injection, schedule: Q04DX003 (ip), vehicle: saline with Tween-80 94 % of control | [8] 106 % of control

CCCCCCCN(CCCCCCC)CC(O)c1cc2ccc(Cl)cc2c2ncccc12 (centres undefined)
inactive: dose: 100.0 mg/kg/injection, schedule: Q01DX009 (sc), vehicle: olive oil, sesame oil, peanut oil 109 % of control | dose: 200.0 mg/kg/injection, schedule: Q01DX009 (sc), vehicle: olive oil, sesame oil, peanut oil 108 % of control | dose: 400.0 mg/kg/injection, schedule: Q01DX009 (sc), vehicle: olive oil, sesame oil, peanut oil 95 % of control

CCCCCCCCCC(=O)c1ccccc1
inactive: [9] 96 % of control | [10] 103 % of control | [11] 100 % of control

COc1ccc(OC)c(NC(=O)Nc2cccc(Cl)c2Cl)c1
inactive: [12] 86 % of control | [13] 90 % of control | [14] 88 % of control

c1ccc(-c2oc(-c3ccccc3)c3ccccc23)cc1
inactive: dose: 6.25 mg/kg/injection, schedule: Q01DX009 (ip), vehicle: Klucel (hydroxypropylcellulose) (HPC) 101 % of control | dose: 6.25 mg/kg/injection, schedule: Q04DX003 (ip), vehicle: Klucel (hydroxypropylcellulose) (HPC) 96 % of control | [15] 102 % of control | dose: 12.5 mg/kg/injection, schedule: Q04DX003 (ip), vehicle: Klucel (hydroxypropylcellulose) (HPC) 93 % of control | [16] 96 % of control | dose: 25.0 mg/kg/injection, schedule: Q04DX003 (ip), vehicle: Klucel (hydroxypropylcellulose) (HPC) 96 % of control

COC(=O)COc1ccc(Cl)cc1C(=O)O
inactive: [5] 94 % of control | [6] 92 % of control

CC(C)C/C=N/NC(=O)Cc1ccccc1
inactive: dose: 100.0 mg/kg/injection, schedule: Q01DX001 (ip), vehicle: other 101 % of control | dose: 200.0 mg/kg/injection, schedule: Q01DX001 (ip), vehicle: other 94 % of control | dose: 400.0 mg/kg/injection, schedule: Q01DX001 (ip), vehicle: other 101 % of control

CCO/C=C/C(=O)NC(=O)NC1CC(O)C(CO)C1 (centres undefined)
inactive: [8] 104 % of control | dose: 100.0 mg/kg/injection, schedule: Q01DX009 (ip), vehicle: saline 107 % of control | dose: 200.0 mg/kg/injection, schedule: Q01DX009 (ip), vehicle: saline 93 % of control

CCCCCCCNC(C)=O
inactive: [17] 99 % of control | [7] 106 % of control | [1] 116 % of control | [8] 95 % of control | dose: 100.0 mg/kg/injection, schedule: Q01DX001 (ip), vehicle: saline with Tween-80 92 % of control | [2] 99 % of control

CCC(C)C(C1=C(O)c2ccccc2C(=O)C1=O)C1=C(O)c2ccccc2C(=O)C1=O (centres undefined)
inactive: [18] 97 % of control | [19] 104 % of control

CC/C(=C/c1ccc2c(c1)OCO2)[N+](=O)[O-]
inactive: [17] 100 % of control | [1] 100 % of control | [2] 100 % of control

O=C1C(Cl)(Cl)CCCC1(Cl)Cl
inactive: dose: 50.0 mg/kg/injection, schedule: Q01DX009 (ip), vehicle: saline with Tween-80 98 % of control | dose: 100.0 mg/kg/injection, schedule: Q01DX009 (ip), vehicle: saline with Tween-80 105 % of control | dose: 200.0 mg/kg/injection, schedule: Q01DX009 (ip), vehicle: saline with Tween-80 110 % of control

N#C/C(=C\C1CC(Br)CCC1O)C1CCC([N+](=O)[O-])CC1 (centres undefined)
inactive: dose: 100.0 mg/kg/injection, schedule: Q04DX002 (ip), vehicle: saline with Tween-80 97 % of control | dose: 200.0 mg/kg/injection, schedule: Q04DX002 (ip), vehicle: saline with Tween-80 86 % of control

C(=C\c1nc2ccccc2nc1/C=C/c1ccc2c(c1)OCO2)/c1ccc2c(c1)OCO2
inactive: [15] 95 % of control | [16] 92 % of control | dose: 50.0 mg/kg/injection, schedule: Q01DX009 (ip), vehicle: Klucel (hydroxypropylcellulose) (HPC) 100 % of control | [12] 102 % of control | [13] 96 % of control | [20] 86 % of control | [14] 95 % of control

C1=NC(c2ccccc2)=CN(C2CCCCCC2)C1(c1ccccc1)C1CCCCCC1 (centres undefined)
inactive: dose: 50.0 mg/kg/injection, schedule: Q04DX002 (ip), vehicle: saline 99 % of control | [9] 98 % of control | dose: 100.0 mg/kg/injection, schedule: Q04DX002 (ip), vehicle: saline 101 % of control | [10] 88 % of control | dose: 200.0 mg/kg/injection, schedule: Q04DX002 (ip), vehicle: saline 96 % of control | [11] 95 % of control

COc1ccc(C(C#N)C(O)(c2ccccc2)c2ccccc2)cc1 (centres undefined)
inactive: [1] 104 % of control | [2] 107 % of control | [3] 98 % of control | [4] 93 % of control

COc1ccc2c(c1)CCC1=C2CCC2C(=O)OC(=O)C12C (centres undefined)
inactive: dose: 100.0 mg/kg/injection, schedule: Q01DX009 (ip), vehicle: Klucel (hydroxypropylcellulose) (HPC) 98 % of control | [12] 90 % of control | dose: 200.0 mg/kg/injection, schedule: Q01DX009 (ip), vehicle: Klucel (hydroxypropylcellulose) (HPC) 95 % of control | [13] 98 % of control | [20] 101 % of control | [14] 97 % of control

O=c1[nH]c2cc(Cl)ccc2c2c(Cl)cccc12
inactive: [18] 91 % of control | [19] 91 % of control | dose: 300.0 mg/kg/injection, schedule: Q01DX001 (ip), vehicle: carboxymethylcellulose (CMC) 96 % of control

O=S(=O)(NC(CCl)=NC1CCCCC1)c1ccccc1
inactive: [9] 89 % of control | [10] 100 % of control | [11] 104 % of control

CCOc1ccc(N=Nc2c(O)n(-c3ccccc3C)c(=S)n(-c3ccccc3OC)c2=O)cc1
inactive: dose: 75.0 mg/kg/injection, schedule: Q01DX003 (ip), vehicle: Klucel (hydroxypropylcellulose) (HPC) 91 % of control | dose: 150.0 mg/kg/injection, schedule: Q01DX003 (ip), vehicle: Klucel (hydroxypropylcellulose) (HPC) 94 % of control | dose: 300.0 mg/kg/injection, schedule: Q01DX003 (ip), vehicle: Klucel (hydroxypropylcellulose) (HPC) 91 % of control

OC(CCN1CCOCC1)c1cc2ccccc2o1 (centres undefined)
inactive: dose: 75.0 mg/kg/injection, schedule: Q04DX003 (ip), vehicle: saline with Tween-80 102 % of control | dose: 150.0 mg/kg/injection, schedule: Q04DX003 (ip), vehicle: saline with Tween-80 100 % of control
